Earlier results in patent US20240180852A1, “TREATMENT FOR MALIGNANT PLEURAL EFFUSION IN HUMANS” (Signpath Pharma, Inc., priority 2021, published 2024).

How the values were obtained:
[1] = in vivo

bioavailability [1]: low bioavailability
solubility: low solubility
Structure (SMILES): COc1cc(C=CC(=O)CC(=O)C=Cc2ccc(O)c(OC)c2)ccc1O [curcumin, 1,7-bis(4-hydroxy-3-methoxyphenyl)-1,6-heptadiene-3,5-dione]
